This note sets out measurements from ChEMBL document CHEMBL5214990, “Novel Aryl Alkamidazole Derivatives as Multifunctional Antifungal Inhibitors: Design, Synthesis, and Biological Evaluation” (J Med Chem, 2022).

pIC50: −log10 of the molar value. Values after ≈ are worked out from the molar mass of the structure shown. Active and inactive are the calls of the source. The calls are words filed in the database; no cut-off is given here.

The subject of series [1] is Candida albicans. Kind of series: Antifungal activity against Candida albicans ATCC SC5314 assessed as inhibition of fungal growth measured after 72 hrs by CLSI based liquid medium dilution method. The class given is functional.
A further series relates to Cryptococcus neoformans. Nature of the series: Antifungal activity against Cryptococcus neoformans assessed as inhibition of fungal growth measured after 72 hrs by CLSI based liquid medium dilution method. The class given is functional.
Another series relates to Pichia kudriavzevii. Nature of the series: Antifungal activity against Candida krusei ATCC 6258 assessed as inhibition of fungal growth measured after 72 hrs by CLSI based liquid medium dilution method. The class given is functional.
A further series deals with Candida tropicalis. Nature of the series: Antifungal activity against Candida tropicalis ATCC 1369 assessed as inhibition of fungal growth measured after 72 hrs by CLSI based liquid medium dilution method. The class given is functional.
The next series relates to Aspergillus fumigatus. Kind of series: Antifungal activity against Aspergillus fumigatus KM8001 assessed as inhibition of fungal growth measured after 72 hrs by CLSI based liquid medium dilution method. The class given is functional.
Series [2] has as its system Candida albicans. Kind of series: Antifungal activity against fluconazole-resistant Candida albicans 17# assessed as inhibition of fungal growth measured after 72 hrs by CLSI based liquid medium dilution method. The class given is functional.
Series [3] relates to Candida albicans. Nature of the series: Antifungal activity against fluconazole-resistant Candida albicans CaR assessed as inhibition of fungal growth measured after 72 hrs by CLSI based liquid medium dilution method. The class given is functional.
The test system of series [4] is Candida albicans. Nature of the series: Antifungal activity against fluconazole-resistant Candida albicans 632 assessed as inhibition of fungal growth measured after 72 hrs by CLSI based liquid medium dilution method. The class given is functional.
Series [5] concerns Candida albicans. Kind of series: Antifungal activity against fluconazole-resistant Candida albicans 901 assessed as inhibition of fungal growth measured after 72 hrs by CLSI based liquid medium dilution method. The class given is functional.
For series [6], the system named is Candida albicans. Nature of the series: Antifungal activity against fluconazole-resistant Candida albicans 904 assessed as inhibition of fungal growth measured after 72 hrs by CLSI based liquid medium dilution method. The class given is functional.
In series [7] the target is T1, Lanosterol 14-alpha demethylase (Candida albicans (strain SC5314 / ATCC MYA-2876) (Yeast), UniProt P10613). Nature of the series: Inhibition of CYP51 in Candida albicans ATCC SC5314 assessed as reduction in substrate consumption using lanosterol as substrate preincubated for 30 mins followed by substrate addition and measured after 60 mins by HPLC analysis.
Series [8] concerns the target T2, Prostaglandin G/H synthase 2 (Homo sapiens, UniProt P35354).
T2 sequence (P35354 whole entry): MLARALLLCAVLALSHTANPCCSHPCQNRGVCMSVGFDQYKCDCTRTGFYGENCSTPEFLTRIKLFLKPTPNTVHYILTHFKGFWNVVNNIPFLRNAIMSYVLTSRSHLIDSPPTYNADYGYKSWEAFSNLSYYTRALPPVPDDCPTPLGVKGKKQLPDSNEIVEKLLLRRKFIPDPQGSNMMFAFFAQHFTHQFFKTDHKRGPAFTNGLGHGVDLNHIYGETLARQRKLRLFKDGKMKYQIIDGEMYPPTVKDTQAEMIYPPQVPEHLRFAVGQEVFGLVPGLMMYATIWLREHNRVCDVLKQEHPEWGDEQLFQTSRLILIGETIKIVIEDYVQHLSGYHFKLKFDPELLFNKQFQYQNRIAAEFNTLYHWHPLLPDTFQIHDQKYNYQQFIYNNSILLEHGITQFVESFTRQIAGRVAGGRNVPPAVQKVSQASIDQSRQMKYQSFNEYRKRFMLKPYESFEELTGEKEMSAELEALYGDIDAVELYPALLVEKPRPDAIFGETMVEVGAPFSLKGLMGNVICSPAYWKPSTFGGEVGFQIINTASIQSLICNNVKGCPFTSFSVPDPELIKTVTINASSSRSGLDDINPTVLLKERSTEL
Nature of the series: Inhibition of COX2 (unknown origin) assessed as reduction in PGF2alpha content using arachidonic acid as substrate preincubated for 10 mins followed by substrate addition and measured after 2 mins by enzyme immunoassay.

The nature of series [9]: Drug uptake in Candida albicans ATCC SC5314 assessed as increase in red and green fluorescence intensity measured after 10 hrs by PI/Hoechst […] staining based fluorescence microscopy. The class given is ADME.
Series [10] relates to Candida albicans. Kind of series: Antifungal activity against Candida albicans assessed as inhibition of fungal cell proliferation by measuring decrease in fungal cell density measured after 24 hrs. The class given is functional, organism-based.
Series [11] is described as follows: Increase in intracellular ROS level in Candida albicans assessed as fold increase in fluorescence intensity measured after 12 hrs by fluorescence microscopic analysis relative to control. The class given is functional.
Series [12] is described as follows: Increase in intracellular ROS level in Cryptococcus neoformans assessed as fold increase in fluorescence intensity measured after 12 hrs by fluorescence microscopic analysis relative to control. The class given is functional.
Series [13] has as its system Candida albicans. Kind of series: Induction of mitochondrial membrane depolarization in Candida albicans assessed as fungal cells with depolarized mitochondria measured after 24 hrs by JC-1 staining based flow cytometry (reference value: 3.22%). The class given is functional.
Series [14] has as its system Candida albicans. Nature of the series: Induction of mitochondrial membrane depolarization in Candida albicans assessed as fungal cells with intact mitochondria measured after 24 hrs by JC-1 staining based flow cytometry (reference value: 95.9%). The class given is functional. Background: Flow cytometry measures light scatter and fluorescence of single cells or particles in a stream.

Series [15] deals with Candida albicans. Nature of the series: Induction of apoptosis in Candida albicans assessed as viable cells measured after 24 hrs by Annexin V-FITC/PI staining based flow cytometry (reference value: 95.7%). The class given is functional.
Series [16] deals with Candida albicans. Kind of series: Induction of apoptosis in Candida albicans assessed as early apoptotic cells measured after 24 hrs by Annexin V-FITC/PI staining based flow cytometry (reference value: 0.46%). The class given is functional.
Series [17] relates to Candida albicans. Nature of the series: Induction of apoptosis in Candida albicans assessed as late apoptotic cells measured after 24 hrs by Annexin V-FITC/PI staining based flow cytometry (reference value: 0.44%). The class given is functional.
In series [18] the test system is Candida albicans. Kind of series: Induction of apoptosis in Candida albicans assessed as necrotic cells measured after 24 hrs by Annexin V-FITC/PI staining based flow cytometry (reference value: 3.37%). The class given is functional.
In series [19] the target is T1, Lanosterol 14-alpha demethylase. Nature of the series: Inhibition of CYP51 in Candida albicans ATCC SC5314 assessed as ergosterol content at 4 ug/ml measured after 48 hrs by GC-MS analysis (reference value: 95.61%). Particulars: at 4 µg/mL. On the set-up: scale not given: the % may be the effect or the level left.
Series [20] shares this target. Nature of the series: Inhibition of CYP51 in Candida albicans ATCC SC5314 assessed as lanosterol content at 4 ug/ml measured after 48 hrs by GC-MS analysis. Details: scale not given: the % may be the effect or the level left. The note with it: at 4 µg/mL.
For series [21] the target is unchanged. Kind of series: Inhibition of CYP51 in Candida albicans ATCC SC5314 assessed as eburicol content at 4 ug/ml measured after 48 hrs by GC-MS analysis (reference value: 1.84%). On the set-up: scale not given: the % may be the effect or the level left. Particulars: at 4 µg/mL.
Series [22] shares this target. Kind of series: Inhibition of CYP51 in Candida albicans ATCC SC5314 assessed as unknown sterol content at 4 ug/ml measured after 48 hrs by GC-MS analysis. On the set-up: scale not given: the % may be the effect or the level left. Particulars: at 4 µg/mL.

T1 sequence (P10613 whole entry): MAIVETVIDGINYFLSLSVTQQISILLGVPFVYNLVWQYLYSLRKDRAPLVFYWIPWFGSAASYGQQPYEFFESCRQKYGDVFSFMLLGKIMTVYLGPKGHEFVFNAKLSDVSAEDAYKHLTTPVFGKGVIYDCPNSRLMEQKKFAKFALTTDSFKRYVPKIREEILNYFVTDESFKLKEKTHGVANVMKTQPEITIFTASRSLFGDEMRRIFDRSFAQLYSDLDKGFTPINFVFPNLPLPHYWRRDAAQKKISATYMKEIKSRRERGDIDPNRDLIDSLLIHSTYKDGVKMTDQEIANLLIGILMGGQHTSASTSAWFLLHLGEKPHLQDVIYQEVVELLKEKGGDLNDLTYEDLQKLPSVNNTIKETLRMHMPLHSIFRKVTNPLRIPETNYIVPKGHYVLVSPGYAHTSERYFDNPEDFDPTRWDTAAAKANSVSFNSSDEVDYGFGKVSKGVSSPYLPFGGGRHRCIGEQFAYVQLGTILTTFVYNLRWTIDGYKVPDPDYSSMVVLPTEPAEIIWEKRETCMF

One may read the MIC50 as an inhibitory concentration at the 50% level, which refers to growth in some studies and to a panel of isolates in others. One may read the pIC50 as −log10 of the IC50, conventionally taken in molar units. As for `C[C@H](C(=O)OC(Cn1ccnc1)c1ccc(F)cc1)c1ccc(-c2ccccc2)c(F)c1` (stereo partly specified), the MIC50 with Candida albicans [1] was determined as 0.25 µg/mL (≈ 0.578 µM); in the series with Cryptococcus neoformans, 0.5 µg/mL (≈ 1.16 µM); with Pichia kudriavzevii, 0.125 µg/mL (≈ 0.289 µM); in the series with Candida tropicalis, 0.25 µg/mL (≈ 0.578 µM); in the series with Aspergillus fumigatus, 2 µg/mL (≈ 4.62 µM); with Candida albicans [2], 4 µg/mL (≈ 9.25 µM). The MIC50 is 2 µg/mL (≈ 4.62 µM) in the series on Candida albicans [3], 4 µg/mL (≈ 9.25 µM) with Candida albicans [4], 2 µg/mL (≈ 4.62 µM) with Candida albicans [5] and 2 µg/mL (≈ 4.62 µM) with Candida albicans [6]. The pIC50 was 6.46 in [7] and 5.42 in series [8]. For the same compound, in series [9], the Drug uptake entry is on record as “Active”. Further, the outcome with Candida albicans [10] was Active. Also, the “fold change (FC)” value in series [11] and in series [12] was 4 in each case. The Activity in the series on Candida albicans [13] is 52.9%; in the series with Candida albicans [14] it was 46.6%; with Candida albicans [15], 66.2%; in the series on Candida albicans [16] it was 0.086%; in the series with Candida albicans [17], 1.06%; in the series with Candida albicans [18], 32.7%. Besides, the Activity in series [19] is on record as 21.84%; in series [20], 33.52%; in series [21], 39.58%; in [22] it was 5.06%.
Consider `CC(=O)N1CCN(c2ccc(OCC3COC(Cn4ccnc4)(c4ccc(Cl)cc4Cl)O3)cc2)CC1` (stereo unspecified) [KETOCONAZOLE], for which the MIC50 in the series on Candida albicans [1] is 1 µg/mL (≈ 1.88 µM); in the series on Cryptococcus neoformans, 1 µg/mL (≈ 1.88 µM); with Pichia kudriavzevii it was 0.5 µg/mL (≈ 0.941 µM); in the series with Candida tropicalis it was 0.5 µg/mL (≈ 0.941 µM); in the series on Aspergillus fumigatus it was above 8 µg/mL; with Candida albicans [2] it was 4 µg/mL (≈ 7.53 µM). Besides, the MIC50 was 4 µg/mL (≈ 7.53 µM) in the series with Candida albicans [3], above 8 µg/mL in the series on Candida albicans [4], 4 µg/mL (≈ 7.53 µM) in the series with Candida albicans [5] and above 8 µg/mL in the series on Candida albicans [6].
